Values joined by “and” are separate entries in the source; they are usually repeats but may differ in a detail not shown here. Identical values can stand only once. Inconclusive results and toxic doses are left out. The calls were made as follows: active = survival T/C of 150% or more; inactive = T/C below 125% in these data.
System: P388 leukemia ip, CD2F1 mice, survival T/C
Test: NCI In Vivo Anticancer Drug Screen. Data for tumor model P388 Leukemia (intraperitoneal) in CD2F1 (CDF1) mice
Details: endpoint: median survival time, higher = longer survival
Outline: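 Mice carrying the transplanted tumor received test compound or vehicle. Survival was recorded in each group, and the value is the treated-group measurement divided by that of the vehicle-treated control group.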

[1] = dose: 12.5 mg/kg/injection, schedule: Q01DX009 (ip), vehicle: saline
[2] = dose: 25.0 mg/kg/injection, schedule: Q01DX009 (ip), vehicle: saline
[3] = dose: 50.0 mg/kg/injection, schedule: Q01DX005 (ip), vehicle: saline with Tween-80
[4] = dose: 50.0 mg/kg/injection, schedule: Q01DX009 (ip), vehicle: Klucel (hydroxypropylcellulose) (HPC)
[5] = dose: 100.0 mg/kg/injection, schedule: Q01DX009 (ip), vehicle: Klucel (hydroxypropylcellulose) (HPC)
[6] = dose: 200.0 mg/kg/injection, schedule: Q01DX009 (ip), vehicle: Klucel (hydroxypropylcellulose) (HPC)
[7] = dose: 60.0 mg/kg/injection, schedule: Q01DX005 (ip), vehicle: saline with Tween-80
[8] = dose: 120.0 mg/kg/injection, schedule: Q01DX005 (ip), vehicle: saline with Tween-80
[9] = dose: 50.0 mg/kg/injection, schedule: Q01DX005 (ip), vehicle: Klucel (hydroxypropylcellulose) (HPC)
[10] = dose: 100.0 mg/kg/injection, schedule: Q01DX005 (ip), vehicle: Klucel (hydroxypropylcellulose) (HPC)
[11] = dose: 200.0 mg/kg/injection, schedule: Q01DX005 (ip), vehicle: Klucel (hydroxypropylcellulose) (HPC)
[12] = dose: 50.0 mg/kg/injection, schedule: Q01DX009 (ip), vehicle: saline
[13] = dose: 100.0 mg/kg/injection, schedule: Q04DX002 (ip), vehicle: saline with Tween-80

Measured: T/C

COC1/C=C/OC2(C)Oc3c(C)c(O)c4c(c3C2=O)C(=O)C=C(NC(=O)/C(C)=C\C=C\C(C)C(OC=O)C(C)C(O)C(C)C(OC(C)=O)C1C)C4=O (configuration not stated)
inactive: dose: 50.0 mg/kg/injection, schedule: Q01DX009 (ip), vehicle: saline with Tween-80 100 % of control | dose: 100.0 mg/kg/injection, schedule: Q01DX009 (ip), vehicle: saline with Tween-80 92 % of control | dose: 200.0 mg/kg/injection, schedule: Q01DX009 (ip), vehicle: saline with Tween-80 91 % of control

S=C(N/N=C/c1ccccn1)N/N=C/c1ccccn1
inactive: dose: 6.25 mg/kg/injection, schedule: Q01DX009 (ip), vehicle: saline 117 % of control | [1] 103 % of control and 105 % of control | dose: 25.0 mg/kg/injection, schedule: Q01DX009 (ip), vehicle: distilled water + Tween-80 97 % of control | [2] 109 % of control and 120 % of control

O=C1C=CC2OC(c3ccccc3)C(O)C2O1 (configuration not stated)
inactive: dose: 3.12 mg/kg/injection, schedule: Q01DX005 (ip), vehicle: DMSO 98 % of control | dose: 6.25 mg/kg/injection, schedule: Q01DX005 (ip), vehicle: DMSO 107 % of control | dose: 6.25 mg/kg/injection, schedule: Q01DX005 (ip), vehicle: saline with Tween-80 110 % of control and 118 % of control (2×) | dose: 6.25 mg/kg/injection, schedule: Q01DX009 (ip), vehicle: distilled water + Tween-80 + alcohol 98 % of control | dose: 12.5 mg/kg/injection, schedule: Q01DX005 (ip), vehicle: DMSO 116 % of control | dose: 12.5 mg/kg/injection, schedule: Q01DX005 (ip), vehicle: saline with Tween-80 103 % of control (2×) and 117 % of control | dose: 12.5 mg/kg/injection, schedule: Q01DX009 (ip), vehicle: distilled water + Tween-80 + alcohol 109 % of control | dose: 25.0 mg/kg/injection, schedule: Q01DX005 (ip), vehicle: DMSO 122 % of control | dose: 25.0 mg/kg/injection, schedule: Q01DX005 (ip), vehicle: saline with Tween-80 109 % of control (2×) and 118 % of control | dose: 25.0 mg/kg/injection, schedule: Q01DX009 (ip), vehicle: distilled water + Tween-80 + alcohol 118 % of control | dose: 30.0 mg/kg/injection, schedule: Q01DX009 (ip), vehicle: DMSO 113 % of control | [3] 107 % of control

O=C1CCSC(=S)N1C(=O)c1ccccc1
inactive: [4] 104 % of control | [5] 104 % of control | [6] 109 % of control

CN1NC(c2ccccc2)=C(C#N)C(=O)CC1c1ccco1 (configuration not stated)
inactive: [7] 102 % of control | [8] 86 % of control | dose: 240.0 mg/kg/injection, schedule: Q01DX005 (ip), vehicle: saline with Tween-80 97 % of control

CCOc1ccc(C(C)c2cc3c(cc2OC)OCO3)c(C)c1 (configuration not stated)
inactive: [9] 103 % of control | [10] 106 % of control | [11] 106 % of control

[B-][N+]12CC[N+]([B-])(CC1)CC2
inactive: dose: 0.06 mg/kg/injection, schedule: Q04DX003 (ip), vehicle: other 100 % of control | dose: 0.13 mg/kg/injection, schedule: Q04DX003 (ip), vehicle: other 100 % of control | dose: 0.25 mg/kg/injection, schedule: Q04DX003 (ip), vehicle: other 100 % of control | dose: 15.6 micrograms/kg/injection, schedule: Q01DX009 (ip), vehicle: other 100 % of control | dose: 31.3 micrograms/kg/injection, schedule: Q01DX009 (ip), vehicle: other 100 % of control | dose: 62.5 micrograms/kg/injection, schedule: Q01DX009 (ip), vehicle: other 100 % of control | dose: 62.5 micrograms/kg/injection, schedule: Q01DX009 (ip), vehicle: saline 87 % of control | dose: 125.0 micrograms/kg/injection, schedule: Q01DX009 (ip), vehicle: saline 104 % of control

Cc1ccc(S(=O)(=O)Cc2ccccc2)cc1
inactive: dose: 50.0 mg/kg/injection, schedule: Q04DX003 (ip), vehicle: other 90 % of control | dose: 100.0 mg/kg/injection, schedule: Q04DX003 (ip), vehicle: other 95 % of control | dose: 200.0 mg/kg/injection, schedule: Q04DX003 (ip), vehicle: other 90 % of control

O=[N+]([O-])c1ccc(/C(=C/c2ccccc2)S(=O)(=O)C(Cl)(Cl)Cl)o1
inactive: [1] 102 % of control and 97 % of control | [2] 104 % of control and 92 % of control | [12] 104 % of control and 92 % of control | dose: 50.0 mg/kg/injection, schedule: Q01DX009 (ip), vehicle: suspension in saline 100 % of control | dose: 100.0 mg/kg/injection, schedule: Q01DX009 (ip), vehicle: saline 101 % of control and 112 % of control

CCOC(=O)C1C(=O)N(C)C(=O)N1c1ccc(C)cc1 (configuration not stated)
inactive: [7] 98 % of control | [8] 87 % of control

C1CC(CCC2CCNCC2)CCN1
inactive: [2] 96 % of control | [12] 97 % of control

NC1=NS(=O)(=O)c2ccccc2N1c1ccccc1
inactive: [13] 97 % of control | dose: 200.0 mg/kg/injection, schedule: Q04DX002 (ip), vehicle: saline with Tween-80 103 % of control | dose: 400.0 mg/kg/injection, schedule: Q04DX002 (ip), vehicle: saline with Tween-80 92 % of control

c1ccc2c(c1)oc1c3c(ccc12)NCCC3
inactive: [3] 104 % of control | dose: 100.0 mg/kg/injection, schedule: Q01DX005 (ip), vehicle: saline with Tween-80 99 % of control | dose: 200.0 mg/kg/injection, schedule: Q01DX005 (ip), vehicle: saline with Tween-80 104 % of control

CC(=O)Cc1nc2ccccc2s1
inactive: dose: 25.0 mg/kg/injection, schedule: Q04DX002 (ip), vehicle: saline with Tween-80 104 % of control | dose: 50.0 mg/kg/injection, schedule: Q04DX002 (ip), vehicle: saline with Tween-80 107 % of control | [13] 102 % of control

C/C=c1/[nH]c(=O)/c(=C\C=C\c2ccccc2)[nH]c1=O
inactive: dose: 25.0 mg/kg/injection, schedule: Q01DX009 (ip), vehicle: Klucel (hydroxypropylcellulose) (HPC) 106 % of control and 91 % of control | [4] 104 % of control and 91 % of control | [5] 88 % of control and 91 % of control and 95 % of control | [6] 97 % of control

COc1cccc(C2NC(=S)NC(=O)C2C#N)c1 (configuration not stated)
inactive: [4] 98 % of control | [5] 98 % of control | [6] 94 % of control

CC(=O)Nc1ccccc1NOC(=O)c1ccccc1NC(C)=O
inactive: [9] 91 % of control | [10] 87 % of control | [11] 91 % of control

CC12CCC3C4CCC(=O)C(O)=C4CCC3C1CCC2OC(=O)CCC1CCCC1 (configuration not stated)
inactive: dose: 50.0 mg/kg/injection, schedule: Q04DX003 (sc), vehicle: Klucel (hydroxypropylcellulose) (HPC) 99 % of control | dose: 100.0 mg/kg/injection, schedule: Q04DX003 (sc), vehicle: Klucel (hydroxypropylcellulose) (HPC) 118 % of control | dose: 200.0 mg/kg/injection, schedule: Q04DX003 (sc), vehicle: Klucel (hydroxypropylcellulose) (HPC) 101 % of control

CCN=C(N)N/N=C(\C)c1ccc2c(c1)Cc1cc(/C(C)=N/NC(N)=NCC)ccc1-2
inactive: dose: 0.39 mg/kg/injection, schedule: Q04DX002 (ip), vehicle: saline with Tween-80 100 % of control | dose: 0.39 mg/kg/injection, schedule: Q04DX002 (ip), vehicle: saline 98 % of control | dose: 0.78 mg/kg/injection, schedule: Q04DX002 (ip), vehicle: saline with Tween-80 94 % of control | dose: 0.78 mg/kg/injection, schedule: Q04DX002 (ip), vehicle: saline 93 % of control | dose: 1.56 mg/kg/injection, schedule: Q04DX002 (ip), vehicle: saline with Tween-80 103 % of control | dose: 1.56 mg/kg/injection, schedule: Q04DX002 (ip), vehicle: saline 102 % of control | dose: 3.12 mg/kg/injection, schedule: Q04DX002 (ip), vehicle: saline with Tween-80 101 % of control | dose: 3.12 mg/kg/injection, schedule: Q04DX002 (ip), vehicle: saline 104 % of control | dose: 6.25 mg/kg/injection, schedule: Q04DX002 (ip), vehicle: saline with Tween-80 102 % of control | dose: 6.25 mg/kg/injection, schedule: Q04DX002 (ip), vehicle: saline 105 % of control | dose: 12.5 mg/kg/injection, schedule: Q04DX002 (ip), vehicle: saline 105 % of control | dose: 25.0 mg/kg/injection, schedule: Q04DX002 (ip), vehicle: saline 102 % of control

Source: PubChem BioAssay AID330 (DTP/NCI, 2004)
